Laboratory results as given in ChEMBL document CHEMBL1909639, “Synthesis, stereochemistry and in vitro antimicrobial evaluation of novel 2-[(2,4-diaryl-3-azabicyclo[3.3.1]nonan-9-ylidene)hydrazono]-4-phenyl-2,3-dihydrothiazoles” (2011).
≈ marks a conversion by molar mass, not a printed value. Calls of active or inactive are those of the source. The rule behind the calls is not given here.

Tests used:
Staphylococcus aureus = assay: Antibacterial activity against Staphylococcus aureus ATCC 25825 after 24 hrs by twofold serial dilution method; assay type: functional; settings: ATCC 25825, 24 h
Cryptococcus neoformans [1] = assay: Antifungal activity against Cryptococcus neoformans ATCC 3312 at 200 ug/mL after 72 to 96 hrs by twofold serial dilution method; assay type: functional, organism-based
Escherichia coli [2] = assay: Antibacterial activity against Escherichia coli ATCC 25835 after 24 hrs by twofold serial dilution method; assay type: functional; settings: ATCC 25835, 24 h
Klebsiella pneumoniae [3] = assay: Antibacterial activity against Klebsiella pneumoniae ATCC 15490 after 24 hrs by twofold serial dilution method; assay type: functional; settings: ATCC 15490, 24 h
Aspergillus niger = assay: Antifungal activity against Aspergillus niger ATCC 598 after 72 to 96 hrs by twofold serial dilution method; assay type: functional
Salmonella typhi [4] = assay: Antibacterial activity against Salmonella typhi ATCC 24915 after 24 hrs by twofold serial dilution method; assay type: functional, Salmonella enterica subsp. enterica serovar Typhi; settings: Salmonella enterica, ATCC 24915, 24 h
Candida albicans = assay: Antifungal activity against Candida albicans ATCC 3122 by twofold serial dilution method; assay type: functional
Bacillus subtilis [5] = assay: Antibacterial activity against Bacillus subtilis ATCC 451 after 24 hrs by twofold serial dilution method; assay type: functional; settings: ATCC 451, 24 h
Rhizopus [6] = assay: Antifungal activity against Rhizopus sp. ATCC 2915 after 72 to 96 hrs by twofold serial dilution method; assay type: functional
Aspergillus flavus [7] = assay: Antifungal activity against Aspergillus flavus ATCC 485 after 72 to 96 hrs by twofold serial dilution method; assay type: functional
Salmonella typhi [8] = assay: Antibacterial activity against Salmonella typhi ATCC 24915 at 200 ug/mL after 24 hrs by twofold serial dilution method; assay type: functional, organism-based; settings: Salmonella enterica subsp. enterica serovar Typhi
Cryptococcus neoformans [9] = assay: Antifungal activity against Cryptococcus neoformans ATCC 3312 after 72 to 96 hrs by twofold serial dilution method; assay type: functional
Bacillus subtilis [10] = assay: Antibacterial activity against Bacillus subtilis ATCC 451 at 200 ug/mL after 24 hrs by twofold serial dilution method; assay type: functional, organism-based
Rhizopus [11] = assay: Antifungal activity against Rhizopus sp. ATCC 2915 at 200 ug/mL after 72 to 96 hrs by twofold serial dilution method; assay type: functional, organism-based
Klebsiella pneumoniae [12] = assay: Antibacterial activity against Klebsiella pneumoniae ATCC 15490 at 200 ug/mL after 24 hrs by twofold serial dilution method; assay type: functional, organism-based
Escherichia coli [13] = assay: Antibacterial activity against Escherichia coli ATCC 25835 at 200 ug/mL after 24 hrs by twofold serial dilution method; assay type: functional, organism-based
Aspergillus flavus [14] = assay: Antifungal activity against Aspergillus flavus ATCC 485 at 200 ug/mL after 72 to 96 hrs by twofold serial dilution method; assay type: functional, organism-based
Escherichia coli [15] = assay: Ratio of compound MIC over streptomycin MIC for Escherichia coli ATCC 25835; assay type: functional

Structure (SMILES) | MIC (Staphylococcus aureus) | Activity (Cryptococcus neoformans [1]) | MIC (Escherichia coli [2]) | MIC (Klebsiella pneumoniae [3]) | MIC (Aspergillus niger) | MIC (Salmonella typhi [4]) | MIC (Candida albicans) | MIC (Bacillus subtilis [5]) | MIC (Rhizopus [6]) | MIC (Aspergillus flavus [7]) | Activity (Salmonella typhi [8]) | MIC (Cryptococcus neoformans [9]) | Activity (Bacillus subtilis [10]) | Activity (Rhizopus [11]) | Activity (Klebsiella pneumoniae [12]) | Activity (Escherichia coli [13]) | Activity (Aspergillus flavus [14]) | Ratio (Escherichia coli [15])
Fc1ccc([C@H]2N[C@@H](c3ccc(F)cc3)C3CCCC2/C3=N/N=c2\scc(-c3ccccc3)n2-c2ccccc2)cc1 | 12.5 µg/mL (≈ 21.7 µM) | inactive | 100 µg/mL (≈ 173 µM) | 100 µg/mL (≈ 173 µM) | 100 µg/mL (≈ 173 µM) | 50 µg/mL (≈ 86.7 µM) | 12.5 µg/mL (≈ 21.7 µM) | 6.25 µg/mL (≈ 10.8 µM) | 50 µg/mL (≈ 86.7 µM) | 200 µg/mL (≈ 347 µM) | – | – | – | – | – | – | – | –
COc1ccc([C@H]2N[C@@H](c3ccc(OC)cc3)C3CCCC2/C3=N/N=c2/[nH]c(-c3ccccc3)cs2)cc1 | 25 µg/mL (≈ 47.6 µM) | – | 100 µg/mL (≈ 191 µM) | 200 µg/mL (≈ 381 µM) | 25 µg/mL (≈ 47.6 µM) | – | 100 µg/mL (≈ 191 µM) | – | 100 µg/mL (≈ 191 µM) | 12.5 µg/mL (≈ 23.8 µM) | inactive | 12.5 µg/mL (≈ 23.8 µM) | inactive | – | – | – | – | –
Fc1ccc([C@H]2N[C@@H](c3ccc(F)cc3)C3CCCC2/C3=N/N=c2/[nH]c(-c3ccccc3)cs2)cc1 | 200 µg/mL (≈ 400 µM) | – | 50 µg/mL (≈ 99.9 µM) | 12.5 µg/mL (≈ 25 µM) | 12.5 µg/mL (≈ 25 µM) | 50 µg/mL (≈ 99.9 µM) | 100 µg/mL (≈ 200 µM) | 12.5 µg/mL (≈ 25 µM) | 50 µg/mL (≈ 99.9 µM) | 6.25 µg/mL (≈ 12.5 µM) | – | 100 µg/mL (≈ 200 µM) | – | – | – | – | – | –
Fc1cccc([C@H]2N[C@@H](c3cccc(F)c3)C3CCCC2/C3=N/N=c2/[nH]c(-c3ccccc3)cs2)c1 | 12.5 µg/mL (≈ 25 µM) | – | 25 µg/mL (≈ 49.9 µM) | 25 µg/mL (≈ 49.9 µM) | 200 µg/mL (≈ 400 µM) | 200 µg/mL (≈ 400 µM) | 100 µg/mL (≈ 200 µM) | – | – | 100 µg/mL (≈ 200 µM) | – | 50 µg/mL (≈ 99.9 µM) | inactive | inactive | – | – | – | –
C[C@@H]1[C@H](O)[C@@H](C)/C=C/C=C/C=C/C=C/C=C/C=C/C=C/[C@H](O[C@@H]2O[C@H](C)[C@@H](O)[C@H](N)[C@@H]2O)C[C@@H]2O[C@](O)(C[C@@H](O)C[C@@H](O)[C@H](O)CC[C@@H](O)C[C@@H](O)CC(=O)O[C@H]1C)C[C@H](O)[C@H]2C(=O)O [AMPHOTERICIN B] | – | – | – | – | 50 µg/mL (≈ 54.1 µM) | – | 25 µg/mL (≈ 27.1 µM) | – | 25 µg/mL (≈ 27.1 µM) | 50 µg/mL (≈ 54.1 µM) | – | 25 µg/mL (≈ 27.1 µM) | – | – | – | – | – | –
Clc1ccc([C@H]2N[C@@H](c3ccc(Cl)cc3)C3CCCC2/C3=N/N=c2/[nH]c(-c3ccccc3)cs2)cc1 | 25 µg/mL (≈ 46.9 µM) | – | 100 µg/mL (≈ 187 µM) | 100 µg/mL (≈ 187 µM) | 25 µg/mL (≈ 46.9 µM) | 50 µg/mL (≈ 93.7 µM) | 200 µg/mL (≈ 375 µM) | 25 µg/mL (≈ 46.9 µM) | 50 µg/mL (≈ 93.7 µM) | 25 µg/mL (≈ 46.9 µM) | – | 200 µg/mL (≈ 375 µM) | – | – | – | – | – | –
Cc1ccc([C@H]2N[C@@H](c3ccc(C)cc3)C3CCCC2/C3=N/N=c2/[nH]c(-c3ccccc3)cs2)cc1 | 200 µg/mL (≈ 406 µM) | inactive | 12.5 µg/mL (≈ 25.4 µM) | 200 µg/mL (≈ 406 µM) | 50 µg/mL (≈ 101 µM) | 200 µg/mL (≈ 406 µM) | 200 µg/mL (≈ 406 µM) | 50 µg/mL (≈ 101 µM) | 12.5 µg/mL (≈ 25.4 µM) | 200 µg/mL (≈ 406 µM) | – | – | – | – | – | – | – | –
c1ccc(-c2cs/c(=N\N=C3\C4CCCC3[C@H](c3ccccc3)N[C@@H]4c3ccccc3)n2-c2ccccc2)cc1 | 25 µg/mL (≈ 46.2 µM) | – | 200 µg/mL (≈ 370 µM) | – | 200 µg/mL (≈ 370 µM) | 100 µg/mL (≈ 185 µM) | 12.5 µg/mL (≈ 23.1 µM) | 100 µg/mL (≈ 185 µM) | 200 µg/mL (≈ 370 µM) | 100 µg/mL (≈ 185 µM) | – | 50 µg/mL (≈ 92.5 µM) | – | – | inactive | – | – | –
Clc1ccc([C@H]2N[C@@H](c3ccc(Cl)cc3)C3CCCC2/C3=N/N=c2\scc(-c3ccccc3)n2-c2ccccc2)cc1 | 25 µg/mL (≈ 41 µM) | – | 100 µg/mL (≈ 164 µM) | – | 25 µg/mL (≈ 41 µM) | 25 µg/mL (≈ 41 µM) | 100 µg/mL (≈ 164 µM) | 12.5 µg/mL (≈ 20.5 µM) | 6.25 µg/mL (≈ 10.3 µM) | 100 µg/mL (≈ 164 µM) | – | 50 µg/mL (≈ 82 µM) | – | – | inactive | – | – | –
c1ccc(-c2cs/c(=N\N=C3\C4CCCC3[C@H](c3ccccc3)N[C@@H]4c3ccccc3)[nH]2)cc1 | 25 µg/mL (≈ 53.8 µM) | – | – | 100 µg/mL (≈ 215 µM) | 50 µg/mL (≈ 108 µM) | 100 µg/mL (≈ 215 µM) | 200 µg/mL (≈ 430 µM) | 200 µg/mL (≈ 430 µM) | 200 µg/mL (≈ 430 µM) | – | – | 100 µg/mL (≈ 215 µM) | – | – | – | inactive | inactive | –
Clc1ccccc1[C@H]1N[C@@H](c2ccccc2Cl)C2CCCC1/C2=N/N=c1/[nH]c(-c2ccccc2)cs1 | 100 µg/mL (≈ 187 µM) | – | 6.25 µg/mL (≈ 11.7 µM) | 100 µg/mL (≈ 187 µM) | 100 µg/mL (≈ 187 µM) | 25 µg/mL (≈ 46.9 µM) | 25 µg/mL (≈ 46.9 µM) | 12.5 µg/mL (≈ 23.4 µM) | 100 µg/mL (≈ 187 µM) | 50 µg/mL (≈ 93.7 µM) | – | 6.25 µg/mL (≈ 11.7 µM) | – | – | – | – | – | 1
Fc1cccc([C@H]2N[C@@H](c3cccc(F)c3)C3CCCC2/C3=N/N=c2\scc(-c3ccccc3)n2-c2ccccc2)c1 | 50 µg/mL (≈ 86.7 µM) | – | 12.5 µg/mL (≈ 21.7 µM) | 100 µg/mL (≈ 173 µM) | 25 µg/mL (≈ 43.3 µM) | 12.5 µg/mL (≈ 21.7 µM) | 12.5 µg/mL (≈ 21.7 µM) | 100 µg/mL (≈ 173 µM) | 100 µg/mL (≈ 173 µM) | 200 µg/mL (≈ 347 µM) | – | 200 µg/mL (≈ 347 µM) | – | – | – | – | – | –
CN[C@@H]1[C@H](O[C@H]2[C@H](O[C@H]3[C@H](O)[C@@H](O)[C@H](N=C(N)N)[C@@H](O)[C@@H]3N=C(N)N)O[C@@H](C)[C@]2(O)C=O)O[C@@H](CO)[C@H](O)[C@H]1O [STREPTOMYCIN] | 50 µg/mL (≈ 86 µM) | – | 12.5 µg/mL (≈ 21.5 µM) | 25 µg/mL (≈ 43 µM) | – | 50 µg/mL (≈ 86 µM) | – | 12.5 µg/mL (≈ 21.5 µM) | – | – | – | – | – | – | – | – | – | –
